Test results published in US7439415B2, “Population of Hoxb8 mutants and uses in identifying agents for treating repetitive behaviors” (priority 2001, dated 2008).
Counter-ions that a name gives are not always drawn.

Tested on: Hoxb8 mutant animals
Assay: Fluoxetine treatment of Hoxb8 mutant mice with excessive grooming (induced grooming assay / hair regrowth)
Assay type: in vivo, mouse
Conditions: 10 mg/kg/day via Alzet mini-osmotic pumps, thirty days of treatment

CNCCC(Oc1ccc(C(F)(F)F)cc1)c1ccccc1 (stereo not shown) [Flu, Fluoxetine-HCl]
hair regrowth / efficacy against excessive grooming behavior: exhibited signs of hair regrowth
